The subject of this test is Hep3B cells. The test is described as follows: Epo protein produced by Hep3B cell line using ELISA method. As to conditions: Homo sapiens, 48 Hours incubation, 100 micromolar the maximum concentration tested. Type of test: cell-based. The procedure:
Measure Epo Protein Produced by Hep3B Cell Line Using ELISA Method.
Hep3B cells obtained from the American Type Culture Collection (ATCC) are seeded at 2×10^4 cells/well in Dulbecco's Modified Eagle Medium (DMEM)+10% FBS in 96-well plates. Cells are incubated at 37deg C./5% CO2/90% humidity (standard cell culture incubation conditions). After overnight adherence, medium is removed and replaced with DMEM without serum containing test compound or DMSO negative control. Following 48 Hours incubation, cell culture medium is collected and assayed by ELISA to quantitate Epo protein.
As to `O=C(O)CNC(=O)c1c(O)n(-c2ccccn2)c(=O)n(Cc2ccccc2)c1=O` [Example 8, N-{[6-Hydroxy-2,4-dioxo-3-(phenylmethyl)-1-(2-pyridinyl)-1,2,3,4-tetrahydro-5-pyrimidinyl]carbonyl}glycine], the EC50 was > 100 µM.

Turning to `O=C(O)CNC(=O)c1c(O)n(-c2ccccc2[N+](=O)[O-])c(=O)n(Cc2ccccc2)c1=O` [Example 9, N-{[6-Hydroxy-1-(2-nitrophenyl)-2,4-dioxo-3-(phenylmethyl)-1,2,3,4-tetrahydro-5-pyrimidinyl]carbonyl}glycine], the EC50 was > 100 µM.

As to `CC(C)(C)c1ccc(Cn2c(=O)c(C(=O)NCC(=O)O)c(O)n(-c3ccccc3-c3ccccc3)c2=O)cc1` [Example 31, N-[(1-(2-Biphenylyl)-3-{[4-(1,1-dimethylethyl)phenyl]methyl}-6-hydroxy-2,4-dioxo-1,2,3,4-tetrahydro-5-pyrimidinyl)carbonyl]glycine], the EC50 was > 100 µM.

For `O=C(O)CNC(=O)c1c(O)n(C2CCCCC2)c(=O)n(CCCN2CCOCC2)c1=O` [Example 35, N-({1-Cyclohexyl-6-hydroxy-3-[3-(4-morpholinyl)propyl]-2,4-dioxo-1,2,3,4-tetrahydro-5-pyrimidinyl}carbonyl)glycine], the EC50 is > 100 µM.

For `CC1(C)CCC(C)(C)c2cc(Cn3c(=O)c(C(=O)NCC(=O)O)c(O)n(C4CCCCC4)c3=O)ccc21` [Example 39, N-({1-Cyclohexyl-6-hydroxy-2,4-dioxo-3-[(5,5,8,8-tetramethyl-5,6,7,8-tetrahydro-2-naphthalenyl)methyl]-1,2,3,4-tetrahydro-5-pyrimidinyl}carbonyl)glycine], the EC50 is > 100 µM.

Take `O=C(O)CNC(=O)c1c(O)n(-c2cccc3ccccc23)c(=O)n(C2CCCCC2)c1=O` [Example 88, N-{[3-Cyclohexyl-6-hydroxy-1-(1-naphthalenyl)-2,4-dioxo-1,2,3,4-tetrahydro-5-pyrimidinyl]carbonyl}glycine]: the EC50 is > 100 µM.

For the molecule `CCOC(=O)CNC(=S)c1c(O)n(C2CCCCC2)c(=O)n(C2CCCCC2)c1=O` [Example 91, Ethyl N-[(1,3-dicyclohexyl-6-hydroxy-2,4-dioxo-1,2,3,4-tetrahydro-5-pyrimidinyl)carbonothioyl]glycinate], the EC50 was > 100 µM.

As for `O=C(O)CCCCCn1c(O)c(C(=O)NCC(=O)O)c(=O)n(C2CCCCC2)c1=O` [Example 93, 6-[5-{[(Carboxymethyl)amino]carbonyl}-3-cyclohexyl-6-hydroxy-2,4-dioxo-3,4-dihydro-1(2 H)-pyrimidinyl]hexanoic acid], the EC50 is > 100 µM.

With `O=C(O)CCCCCn1c(O)c(C(=S)NCC(=O)O)c(=O)n(C2CCCCC2)c1=O` [Example 94, 6-[5-{[(Carboxymethyl)amino]carbonothioyl}-3-cyclohexyl-6-hydroxy-2,4-dioxo-3,4-dihydro-1(2 H)-pyrimidinyl]hexanoic acid], the EC50 is > 100 µM.
